Test results: patent US9999659B2, “Treatments using a peptide and/or vaccine” (AFFIRIS AG, priority 2012, dated 2018)

How the values were obtained:
[1] = system: polyclonal antibodies in mouse sera raised against original PCSK9 sequence (aa 153-162 or aa 153-165); experiment: Competition ELISA: mimotope competes with the original PCSK9 sequence for binding of polyclonal antibodies in mouse sera; conditions: 20 μg peptide incubated with sera; irrelevant peptide = 0% competition
Description: FIGS. 2A and 2B show the ability of PCSK9 mimotopes to compete with the original PCSK9 sequence (aa 153-162 or aa 153-165) for binding polyclonal antibodies in mouse sera raised specifically against the latter.
All mimotopes are compared to the negative group (0% competition by an irrelevant peptide). As a positive control for each competition ELISA the original PCSK9 sequences were used (aa 153-162 or aa 153-165).
The graphs display the ability (in percent) of the mimotopes to compete with the original PCSK9 sequence (aa 153-162 or aa 153-165) for binding polyclonal antibodies raised against the latter.
20 μg of each indicated peptide was incubated with sera from mice injected with original PCSK9 sequence (aa 153-162 or aa 153-165: SEQ ID No. 2). Sera were then incubated on ELISA plates coated with the original PCSK9 sequence (aa 153-162 or aa 153-165: SEQ ID No. 2). Detection was performed with anti-mouse IgG antibodies, ABTS was used as a chromogenic substrate and optical density (OD) was measured at 405 nm.
Mimotopes diminishing >20% subsequent binding of the polyclonal antibodies from the sera to the original human PCSK9 epitope (aa 153-162 or 153-165: SEQ ID No. 3) coated on the ELISA plates were considered as competing mimotopes and as good candidates.

[2] = system: polyclonal antibodies specific for human PCSK9 aa 153-162 or aa 153-165; experiment: Binding ELISA: mimotopes coated on plates, detected by mouse sera raised against the original PCSK9 sequence; conditions: mimotope coated at 1 μmol/mL; titer = serum dilution where 50% of ODmax is reached
Description: FIGS. 1A and 1B show detection of PCSK9 mimotopes sequences by mouse sera containing polyclonal antibodies specific for human PCSK9 aa 153-162 or aa 153-165
The graphs display median titers from all mimotopes compared to the irrelevant negative control. As a positive control the original human PCSK9 sequence is included: aa 153-162 or aa 153-165. Mimotopes with values over 1:50.000 are considered as good candidates.
Mimotopes were coated on ELISA plates at a concentration of 1 μmol/mL. After blocking unspecific binding (1% BSA in PBS) appropriate dilutions of sera from mice injected with the original human PCSK9 sequence aa 153-162 or aa 153-165 (SEQ ID No. 3) were added and incubated for approximately 1 hour. Subsequently, detection with anti-mouse IgG antibodies was performed. ABTS was used as substrate. OD measurements were performed at 405 nm and titers were defined as the dilution of the serum where 50% of the ODmax is reached.

Row | Substance | % Competition compared to the related control group [1] [%] | Median Titer Binding ELISA (ODmax/2) [2]
1 | 17 (SIPGNLERIT; Artificial Sequence, Mimotope) [compound 17] | 0 | 21,000
2 | 65 (SIPWSLERTT; Artificial Sequence, Mimotope) [compound 65] | 64 | 147,000
3 | 34 (SIPWNLEAIT; Artificial Sequence, Mimotope) [compound 34] | 15 | 54,000
4 | 40 (SIPWNLERIQ; Artificial Sequence, Mimotope) [compound 40] | 64 | 181,000
5 | 51 (SIPWNLERITPPS; Artificial Sequence, Mimotope) [compound 51] | 66 | 149,000
6 | 23 (SIPWQLERITPPR; Artificial Sequence, Mimotope) [compound 23] | 79 | 224,000
7 | 27 (SIPWNYERIT; Artificial Sequence, Mimotope) [compound 27] | 76 | 115,000
8 | 44 (SIPWNLERITSPR; Artificial Sequence, Mimotope) [compound 44] | 68 | 153,000
9 | 50 (SIPWNLERITPPK; Artificial Sequence, Mimotope) [compound 50] | 66 | 158,000
10 | 37 (SIPWNLERTT; Artificial Sequence, Mimotope) [compound 37] | 73 | 177,000
11 | 62 (SQPWNLERIL; Artificial Sequence, Mimotope) [compound 62] | 69 | 196,000
12 | 26 (SIPWNGERIT; Artificial Sequence, Mimotope) [compound 26] | 52 | 56,000
13 | 53 (VIPWNLERLT; Artificial Sequence, Mimotope) [compound 53] | 54 | 191,000
14 | 61 (SQPWNLERLT; Artificial Sequence, Mimotope) [compound 61] | 69 | 200,000
15 | 9 (SQPWNLERIT; Artificial Sequence, Mimotope) [compound 9] | 30 | 149,000
16 | 67 (SIPWSLERIQ; Artificial Sequence, Mimotope) [compound 67] | 44 | 223,000
17 | 12 (SITWNLERIT; Artificial Sequence, Mimotope) [compound 12] | 62 | 124,000
18 | 41 (SIPWNLERIA; Artificial Sequence, Mimotope) [compound 41] | 80 | 189,000
19 | 38 (SIPWNLERAT; Artificial Sequence, Mimotope) [compound 38] | 77 | 149,000
20 | 31 (SIPWNLARIT; Artificial Sequence, Mimotope) [compound 31] | 13 | 34,000
21 | 25 (SIPWNAERIT; Artificial Sequence, Mimotope) [compound 25] | 73 | 156,000
22 | 35 (SIPWNLEDIT; Artificial Sequence, Mimotope) [compound 35] | 13 | 48,000
23 | 28 (SIPWNDERIT; Artificial Sequence, Mimotope) [compound 28] | 71 | 131,000
24 | 21 (SIPWSLERIT; Artificial Sequence, Mimotope) [compound 21] | 73 | 147,000

Row | Substance | % Competition compared to the related control group [1] [%] | Median Titer Binding ELISA (ODmax/2) [2]
25 | 56 (VIPWNLERIQ; Artificial Sequence, Mimotope) [compound 56] | 47 | 166,000
26 | 8 (SVPWNLERIT; Artificial Sequence, Mimotope) [compound 8] | 62 | 197,000
27 | 73 (SVPWSLERLT; Artificial Sequence, Mimotope) [compound 73] | 74 | 251,000
28 | 46 (SIPWNLERITPVR; Artificial Sequence, Mimotope) [compound 46] | 75 | 265,000
29 | 3 (ERTKSDPGAQHREF) [compound 3] | 0 | –
30 | 10 (SAPWNLERIT; Artificial Sequence, Mimotope) [compound 10] | 76 | 131,000
31 | 20 (SIPSNLERIT; Artificial Sequence, Mimotope) [compound 20] | 7 | 22,000
32 | 52 (SIPWNLERITPPL; Artificial Sequence, Mimotope) [compound 52] | 66 | 139,000
33 | 54 (VIPWNLERTT; Artificial Sequence, Mimotope) [compound 54] | 69 | 162,000
34 | 55 (VIPWNLERIL; Artificial Sequence, Mimotope) [compound 55] | 49 | 173,000
35 | 18 (SIPHNLERIT; Artificial Sequence, Mimotope) [compound 18] | 0 | 23,000
36 | 13 (SIAWNLERIT; Artificial Sequence, Mimotope) [compound 13] | 78 | 147,000
37 | 7 (AIPWNLERIT; Artificial Sequence, Mimotope) [compound 7] | 88 | 199,000
38 | 48 (SIPWNLERITPNR; Artificial Sequence, Mimotope) [compound 48] | 70 | 186,000
39 | 45 (SIPWNLERITPAR; Artificial Sequence, Mimotope) [compound 45] | 74 | 184,000
40 | 11 (SGPWNLERITPPR; Artificial Sequence, Mimotope) [compound 11] | 54 | 81,000
41 | 16 (SIPANLERIT; Artificial Sequence, Mimotope) [compound 16] | 8 | 22,000
42 | 71 (VQPWNLERLQ; Artificial Sequence, Mimotope) [compound 71] | 72 | 184,000
43 | 64 (SIPWSLERLT; Artificial Sequence, Mimotope) [compound 64] | 46 | 164,000
44 | 59 (SVPWNLERIL; Artificial Sequence, Mimotope) [compound 59] | 59 | 188,000
45 | 42 (SIPWNLERISPPR; Artificial Sequence, Mimotope) [compound 42] | 79 | 719,000
46 | 39 (SIPWNLERIL; Artificial Sequence, Mimotope) [compound 39] | 56 | 168,000
47 | 22 (SIPWALERIT; Artificial Sequence, Mimotope) [compound 22] | 75 | 157,000
48 | 4 (ITELSRWPNI) [compound 4] | 0 | –
